The data set in a line: in vitro. The settings on record: human, hela cells, % viability.

Here are results for 83 molecules from PMC12040169 (PLOS Biology, 2025).

Consider `CN(C)c1ccc(Nc2cc(-c3cccc4ccccc34)ncn2)cc1` [CBK037835], for which the viability (in general, a read-out of living cells in per cent, often relative to untreated cells) at 28.5 h, 10 µM came out at 46.8%.
`COc1cc(-c2cc(N3CCN(CCN4CCCC4)CC3)ncn2)cc(OC)c1OC` [CBK037841]: the viability at 28.5 h, 10 µM worked out at 102%.
Then `CC(C)(C)OC(=O)NCc1ccc(-c2cc(Nc3cccc(Cl)c3)ncn2)cc1` [CBK037842], with 92.8%; and `c1ccc(Oc2ccccc2-c2cc(NCCc3c[nH]cn3)ncn2)cc1` [CBK037845], with 82.9%; and `COc1cc(-c2cncc(NCC(C)(C)CO)n2)cc(OC)c1OC` [CBK037854], with 105%.
For the molecule `CC(CCCC(C)(C)O)Nc1cncc(-c2cccc(Cl)c2)n1` (centres unmarked) [CBK037857], the viability at 28.5 h, 10 µM was determined as 90.1%.
For the molecule `Oc1cccc(-c2cncc(NCCCN3CCOCC3)n2)c1` [CBK037858], the viability at 28.5 h, 10 µM was 89.1%.
As for `COc1ncc(-c2cn3ccnc3c(N3CCN(CCO)CC3)n2)c(OC)n1` [CBK037869], the figure is 107%; as for `COc1ncc(-c2cncc(N3CCN(c4ccccc4C#N)CC3)n2)c(OC)n1` [CBK037872], 105%.
On to `OCCN1CCN(c2nc(-c3cccnc3)cn3ccnc23)CC1` [CBK037887], for which the viability at 28.5 h, 10 µM was found to be 99.3%.
For `COc1ccc(C(C)C)cc1-c1cncc(N2CCCCC2CCO)n1` (centres unmarked) [CBK037897], the viability at 28.5 h, 10 µM came to 94.4%.
Consider `COc1ccc(C(C)C)cc1-c1cncc(N2CCC(C(=O)O)CC2)n1` [CBK037900], for which the viability at 28.5 h, 10 µM is 104%.
As for `OCCN(CCO)c1cncc(-c2cccc(C(F)(F)F)c2)n1` [CBK037917], the figure is 109%; as for `CCCNc1cncc(-c2cccnc2)n1` [CBK037921], 99.1%.
In the case of `COc1ccc(C(=O)OC(C)(C)C)c(-c2cncc(NC3CCC(N)CC3)n2)c1` (centres unmarked) [CBK037922], the viability at 28.5 h, 10 µM was 109%.
Then `CC(=O)Nc1cccc(-c2cn3ccnc3c(N3CCN(C)CC3)n2)c1` [CBK037930], with 95.2%; and `CCCC/C=C/c1cncc(NCc2ccc(OC)cc2)n1` [CBK037933], with 96.7%; and `COc1ccc(-c2cncc(N[C@@H](CO)C(C)C)n2)cc1` [CBK037941], with 82.8%.
For the molecule `CCCC/C=C/c1cncc(Nc2ccccc2)n1` [CBK037942], the viability at 28.5 h, 10 µM is 103%.
In the case of `c1ccc(Nc2nc(-c3ccco3)cn3ccnc23)cc1` [CBK037947], the viability at 28.5 h, 10 µM stood at 86.9%.
Take `c1ccc(CNc2nc(-c3ccco3)cn3ccnc23)cc1` [CBK037955]: the viability at 28.5 h, 10 µM worked out at 90.6%.
On to `OCc1ccccc1-c1cn2ccnc2c(Nc2ccc(N3CCOCC3)cc2)n1` [CBK037956], for which the viability at 28.5 h, 10 µM came out at 85.8%.
As for `CC(=O)c1ccc(-c2cn3ccnc3c(N3CCN(C)CC3)n2)s1` [CBK037957], the figure is 94.4%; as for `CC(=O)Nc1cccc(-c2nccnc2NCC2CC2)c1` [CBK037962], 90.4%; as for `OCc1ccccc1-c1cn2ccnc2c(N[C@@H]2CCN(Cc3ccccc3)C2)n1` [CBK037969], 104%.
Then `CC(=O)Nc1ccc(NC(=O)c2cnc(-c3ccc(F)cc3)c(-c3ccco3)c2)cc1` [CBK037977], with 98.8%; and `CC(=O)c1ccc(-c2nccnc2NCc2ccc(C(F)(F)F)cc2)s1` [CBK037983], with 99.2%; and `CC(C)[C@H](CO)Nc1nccnc1-c1ccccc1F` [CBK037987], with 106%.
`COc1ncc(-c2nccnc2NCc2cccc(Cl)c2)c(OC)n1` [CBK037990]: the viability at 28.5 h, 10 µM was determined as 90%.
Then `CC(=O)Nc1ccc(Nc2nc(-c3ccc(O)cc3)cn3ccnc23)cc1` [CBK037992], with 94.8%.
Then `COc1cccc(CNc2nccnc2-c2ccccc2F)c1OC` [CBK037993], with 98.1%; and `CN(Cc1ccccc1)c1nccnc1-c1ccc(F)c(Cl)c1` [CBK037997], with 107%.
As for `OCc1ccccc1-c1cn2ccnc2c(Nc2ccccc2)n1` [CBK037999], the viability at 28.5 h, 10 µM is 108%.
As for `CCCC/C=C/c1nccnc1NCCCO` [CBK038006], the figure is 102%.
With `COCCNc1nccnc1-c1ccsc1` [CBK038008], the viability at 28.5 h, 10 µM came to 95.4%.
As for `CN1CCCN(c2nccnc2-c2ccccc2CO)CC1` [CBK038014], the figure is 106%; as for `COc1cccc(OC)c1-c1cn2ccnc2c(NC2CC2)n1` [CBK038020], 104%.
Then `CCCC/C=C/c1cn2ccnc2c(N2CCOCC2)n1` [CBK038031], with 100%; and `COc1cc(Nc2nc(-c3cccc(OC(F)(F)F)c3)cn3ccnc23)cc(OC)c1OC` [CBK038036], with 101%; and `OCC1CCCN1c1nccnc1-c1ccccc1F` (centres unmarked) [CBK038037], with 104%.
Then `O=C(O)c1cccc(-c2nccnc2NCC2CC2)c1` [CBK038043], with 95.5%; and `COCCNc1nccnc1-c1ccccc1F` [CBK038044], with 97.6%; and `CN1CCN(c2nc(-c3ccco3)cn3ccnc23)CC1` [CBK038045], with 83.7%.
For the molecule `OCc1ccccc1-c1nccnc1NCc1ccc2c(c1)OCO2` [CBK038046], the viability at 28.5 h, 10 µM was determined as 95.7%.
As for `c1ccc2c(-c3cn4ccnc4c(NC4CCOCC4)n3)cccc2c1` [CBK038047], the figure is 89.9%; as for `COc1ccc(-c2nccnc2NCC2CC2)cc1` [CBK038048], 95.7%.
Then `COc1ccc(C(C)C)cc1-c1cn2ccnc2c(Nc2cccc(OC(F)(F)C(F)F)c2)n1` [CBK038049], with 95.9%.
Then `CN1CCN(c2nccnc2-c2ccco2)CC1` [CBK038050], with 86.7%; and `O=C(O)c1cccc(-c2cn3ccnc3c(N3CCOCC3)n2)c1` [CBK038053], with 84%.
On to `Clc1ccccc1-c1nccnc1NCCc1ccncc1` [CBK038055], for which the viability at 28.5 h, 10 µM turned out to be 98.1%.
With `c1coc(-c2nccnc2NCc2ccncc2)c1` [CBK038059], the viability at 28.5 h, 10 µM was 105%.
As to `COc1cc(CNc2nccnc2-c2cccnc2)cc(OC)c1` [CBK038061], the viability at 28.5 h, 10 µM stood at 105%.
As for `COc1cc(-c2nccnc2NCc2ccc(OC(F)(F)F)cc2)cc(OC)c1OC` [CBK038063], the figure is 117%; as for `COc1ccc(-c2cc(C(=O)Nc3cccc(C(=O)O)c3)cnc2-c2ccc(F)cc2)cn1` [CBK038064], 91.3%.
As for `CS(=O)(=O)CCNC(=O)c1cnc(-c2ccc(F)cc2)c(-c2cccnc2)c1` [CBK038066], the figure is 88%.
As for `CN(Cc1ccccc1)c1nccnc1-c1ccc(CO)cc1` [CBK038067], the viability at 28.5 h, 10 µM was 101%.
In the case of `COc1ncc(-c2nccnc2NCCc2ccncc2)c(OC)n1` [CBK038074], the viability at 28.5 h, 10 µM worked out at 96.7%.
As for `Oc1cccc(-c2cn3ccnc3c(NC3CC3)n2)c1` [CBK038076], the figure is 101%; as for `COc1ccccc1-c1nccnc1N[C@H](C)c1ccccc1` [CBK038083], 107%.
Then `c1coc(-c2nccnc2NCCCN2CCOCC2)c1` [CBK038086], with 96.8%; and `Fc1ccccc1-c1nccnc1NCc1cccs1` [CBK038088], with 106%.
`COc1cc(Nc2nc(-c3cccc(NC(C)=O)c3)cn3ccnc23)cc(OC)c1OC` [CBK038093]: the viability at 28.5 h, 10 µM turned out to be 99.7%.
As for `Nc1nnc(C(F)(F)F)s1` [CBK038099], the figure is 119%.
Then `CCCNC(=O)Cc1sccc1NS(=O)(=O)c1ccc(C)cc1` [CBK038118], with 83%.
`CS(=O)(=O)Nc1ccc(CC#N)cc1` [CBK038145]: the viability at 28.5 h, 10 µM worked out at 114%.
As for `CN1C(=O)c2ccc(NS(C)(=O)=O)cc2C1=O` [CBK038158], the figure is 104%; as for `COc1ccc([C@@]23CC[C@@H](NC(=O)Nc4cccc(Br)c4)C[C@@H]2N(C)CC3)cc1OC` [CBK038225T], 91.4%; as for `CC(=O)Oc1cccc(C(=O)O)c1C` [CBK038235], 87.7%.
For `COc1ccccc1N1CCN(c2nccc3sc(S(=O)(=O)NC4CCC4)cc23)CC1` [CBK038248C], the viability at 28.5 h, 10 µM was determined as 87.7%.
Take `CCCCCCc1ccc(NS(=O)(=O)c2cc3c(NCCN(C)C)nccc3s2)cc1` [CBK038253C]: the viability at 28.5 h, 10 µM was 100%.
As for `COc1ccccc1N1CCN(c2nccc3sc(S(=O)(=O)NCc4ccc(C(F)(F)F)c(F)c4)cc23)CC1` [CBK038270C], the figure is 93.8%; as for `CCCCN1CCC(CNc2nccc3sc(S(=O)(=O)NC4CCC4)cc23)CC1` [CBK038275C], 95.9%.
As for `CC(O)C(=O)NS(=O)(=O)c1ccccc1` (centres unmarked) [CBK038300], the figure is 104%.
As for `CC(=O)c1sccc1NS(=O)(=O)c1ccccc1` [CBK038384], the figure is 92.5%; as for `Cc1ccc(F)c(NS(=O)(=O)Cc2ccccc2)c1` [CBK038438], 111%.
In the case of `O=S(=O)(c1cccc2nsnc12)N1CCCN(Cc2ccsc2)CC1` [CBK038570], the viability at 28.5 h, 10 µM is 105%.
`CC1(C)COC(=O)N1C1CCN(C(=O)c2cncc(Br)c2)CC1` [CBK038781]: the viability at 28.5 h, 10 µM worked out at 81.6%.
Then `Fc1ccc(C2(CCCN3CCN(c4ccncc4)CC3)OCCO2)cc1` [CBK038887], with 111%; and `Cc1ccc(S(=O)(=O)Nc2cccc(C(=O)O)c2)cc1` [CBK038891], with 84.1%.
As for `Cc1noc(C)c1S(=O)(=O)Nc1cccc(C(=O)O)c1` [CBK038902], the figure is 102%.
As for `COc1ccc(/C=C(\C)C(=O)Nc2ccc(N3CCNCC3)c3ccccc23)cc1OC` [CBK038913T], the figure is 92.4%.
On to `Cc1onc(-c2ccccc2)c1C(=O)Nc1ccccc1N1CCCNCC1` [CBK038929T], for which the viability at 28.5 h, 10 µM came to 96.9%.
In the case of `COc1ccc(/C=C(\C)C(=O)Nc2cc3ccccc3c(N3CCNCC3)n2)cc1OC` [CBK038937T], the viability at 28.5 h, 10 µM came out at 82.1%.
